Converted amounts (≈) assume the structure as drawn.
What was measured:
Type in all cases: cell-based
[1] = test system: Micrococcus luteus ATCC 9341; experiment: Antibacterial activity, agar-dilution MIC, organism No. 25; details: Micrococcus luteus, ATCC9341; Organism No. 25, bouillon-agar; read-out: Minimum Inhibitory Concentration
Summary of the method: (§1)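 Agar dilution, bouillon-agar plates; MIC reported in μg/ml of medium.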

Proteus vulgaris HX-19 = experiment: Antibacterial activity, agar-dilution MIC, organism No. 21; details: Proteus vulgaris, HX19; Organism No. 21, bouillon-agar; read-out: Minimum Inhibitory Concentration
Summary of the method: as §1

[2] = test system: Escherichia coli K12 C600 IAM 1264; experiment: Antibacterial activity, agar-dilution MIC, organism No. 6; details: Escherichia coli, IAM1264; Organism No. 6, bouillon-agar; read-out: Minimum Inhibitory Concentration
Summary of the method: as §1

[3] = test system: Streptococcus pyogenes IFO 3340; experiment: Antibacterial activity, agar-dilution MIC, organism No. 26; details: Streptococcus pyogenes, IFO3340; Organism No. 26, bouillon-agar; read-out: Minimum Inhibitory Concentration
Summary of the method: as §1

[4] = test system: Salmonella paratyphi-A 1015; experiment: Antibacterial activity, agar-dilution MIC, organism No. 10; details: Salmonella enterica, PARATYPHI, read-out: Minimum Inhibitory Concentration
Summary of the method: as §1

[5] = test system: Candida albicans IAM 4905; experiment: Antifungal activity, agar-dilution MIC, organism No. 29; details: Candida albicans, IAM4905; Organism No. 29, bouillon-agar; read-out: Minimum Inhibitory Concentration
Summary of the method: as §1

[6] = test system: Staphylococcus aureus FDA 209PJc-1; experiment: Antibacterial activity, agar-dilution MIC, organism No. 1; details: Staphylococcus aureus, FDA209PJC1; Organism No. 1, bouillon-agar; read-out: Minimum Inhibitory Concentration
Summary of the method: as §1

[7] = test system: Salmonella enteritidis G 14; experiment: Antibacterial activity, agar-dilution MIC, organism No. 12; details: Salmonella enterica, ENTERITIDIS; Organism No. 12, bouillon-agar; read-out: Minimum Inhibitory Concentration
Summary of the method: as §1

Salmonella typhi 901 = experiment: Antibacterial activity, agar-dilution MIC, organism No. 9; details: Salmonella enterica, TYPHI, read-out: Minimum Inhibitory Concentration
Summary of the method: as §1

[8] = test system: Mycoplasma pneumoniae IID817; experiment: Antimycoplasmal activity, MIC by phenol red colour change, organism No. 28; details: Mycoplasma, IID817; Organism No. 28, PPLO broth + 1% glucose, 37° C.; read-out: Minimum Inhibitory Concentration (MIC)
Protocol: Mycoplasma pneumoniae IID817 was used as the test microorganism in a culture medium prepared by adding 1% of glucose to "PPLO broth (manufactured by Difco Co.) liquid culture medium" at 37° C. with phenol red as an indicator, thereby culturing the test microorganism.

[9] = test system: Klebsiella pneumoniae PCI-602; experiment: Antibacterial activity, agar-dilution MIC, organism No. 7; details: Klebsiella pneumoniae, PCI602; Organism No. 7, bouillon-agar; read-out: Minimum Inhibitory Concentration
Summary of the method: as §1

[10] = test system: Enterobacter aerogenes ATCC 13048; experiment: Antibacterial activity, agar-dilution MIC, organism No. 23; details: Klebsiella aerogenes, ATCC13048; Organism No. 23, bouillon-agar; read-out: Minimum Inhibitory Concentration
Summary of the method: as §1

[11] = test system: Proteus mirabilis IFO 3849; experiment: Antibacterial activity, agar-dilution MIC, organism No. 19; details: Proteus mirabilis, IFO3849; Organism No. 19, bouillon-agar; read-out: Minimum Inhibitory Concentration
Summary of the method: as §1

[12] = test system: Staphylococcus aureus Terajima; experiment: Antibacterial activity, agar-dilution MIC, organism No. 2; details: Staphylococcus aureus; Organism No. 2, bouillon-agar; read-out: Minimum Inhibitory Concentration
Summary of the method: as §1

[13] = test system: Pseudomonas aeruginosa PAO 1; experiment: Antibacterial activity, agar-dilution MIC, organism No. 17; details: Pseudomonas aeruginosa, PAO1; Organism No. 17, bouillon-agar; read-out: Minimum Inhibitory Concentration
Summary of the method: as §1

[14] = test system: Streptococcus faecium IFO 3826; experiment: Antibacterial activity, agar-dilution MIC, organism No. 27; details: Enterococcus faecium, IFO3826; Organism No. 27, bouillon-agar; read-out: Minimum Inhibitory Concentration
Summary of the method: as §1

[15] = test system: Salmonella typhimurium IID 971; experiment: Antibacterial activity, agar-dilution MIC, organism No. 8; details: Salmonella enterica; Organism No. 8, bouillon-agar; read-out: Minimum Inhibitory Concentration
Summary of the method: as §1

[16] = test system: Serratia marcescens IAM 1184; experiment: Antibacterial activity, agar-dilution MIC, organism No. 13; details: Serratia marcescens, IAM1184; Organism No. 13, bouillon-agar; read-out: Minimum Inhibitory Concentration
Summary of the method: as §1

[17] = test system: Pseudomonas aeruginosa IFO 3445; experiment: Antibacterial activity, agar-dilution MIC, organism No. 15; details: Pseudomonas aeruginosa, IFO3445; Organism No. 15, bouillon-agar; read-out: Minimum Inhibitory Concentration
Summary of the method: as §1

[18] = test system: Proteus morganii IFO 3848; experiment: Antibacterial activity, agar-dilution MIC, organism No. 18; details: Morganella morganii, IFO3848; Organism No. 18, bouillon-agar; read-out: Minimum Inhibitory Concentration
Summary of the method: as §1

[19] = test system: Staphylococcus aureus MS 353; experiment: Antibacterial activity, agar-dilution MIC, organism No. 3; details: Staphylococcus aureus, MS353; Organism No. 3, bouillon-agar; read-out: Minimum Inhibitory Concentration
Summary of the method: as §1

[20] = test system: Streptococcus pyogenes Cook; experiment: Antibacterial activity, agar-dilution MIC, organism No. 4; details: Streptococcus pyogenes; Organism No. 4, bouillon-agar; read-out: Minimum Inhibitory Concentration
Summary of the method: as §1

[21] = test system: Escherichia coli NIHJ-JC-2; experiment: Antibacterial activity, agar-dilution MIC, organism No. 5; details: Escherichia coli, NIHJJC2; Organism No. 5, bouillon-agar; read-out: Minimum Inhibitory Concentration
Summary of the method: as §1

Enterobacter cloacae 963 = experiment: Antibacterial activity, agar-dilution MIC, organism No. 24; details: Enterobacter cloacae, 963; Organism No. 24, bouillon-agar; read-out: Minimum Inhibitory Concentration
Summary of the method: as §1

[22] = test system: Aspergillus niger IFO 6342; experiment: Antifungal activity, agar-dilution MIC, organism No. 30; details: Aspergillus niger, IFO6342; Organism No. 30, bouillon-agar; read-out: Minimum Inhibitory Concentration
Summary of the method: as §1

[23] = test system: Salmonella shottmuelleri 8006; experiment: Antibacterial activity, agar-dilution MIC, organism No. 11; details: Salmonella, 8006; Organism No. 11, bouillon-agar; read-out: Minimum Inhibitory Concentration
Summary of the method: as §1

Proteus vulgaris OX-19 = experiment: Antibacterial activity, agar-dilution MIC, organism No. 20; details: Proteus vulgaris, OX19; Organism No. 20, bouillon-agar; read-out: Minimum Inhibitory Concentration
Summary of the method: as §1

[24] = test system: Pseudomonas aeruginosa NCTC 10490; experiment: Antibacterial activity, agar-dilution MIC, organism No. 16; details: Pseudomonas aeruginosa, NCTC10490; Organism No. 16, bouillon-agar; read-out: Minimum Inhibitory Concentration
Summary of the method: as §1

[25] = test system: Bacillus subtilis ATCC 6633; experiment: Antibacterial activity, agar-dilution MIC, organism No. 14; details: Bacillus subtilis, ATCC6633; Organism No. 14, bouillon-agar; read-out: Minimum Inhibitory Concentration
Summary of the method: as §1

[26] = test system: Proteus rettgeri IFO 3850; experiment: Antibacterial activity, agar-dilution MIC, organism No. 22; details: Providencia rettgeri, IFO3850; Organism No. 22, bouillon-agar; read-out: Minimum Inhibitory Concentration
Summary of the method: as §1

## [C-]#[N+]C12CC3(/C=C/C(N)=O)OC3C1O2 (stereo not drawn) [Compound No. 19]
[1]
  MIC: 25 µg/mL (≈ 130 µM)
Proteus vulgaris HX-19
  MIC: 1.56 µg/mL (≈ 8.12 µM)
[2]
  MIC: 6.25 µg/mL (≈ 32.5 µM)
[3]
  MIC: 6.25 µg/mL (≈ 32.5 µM)
[4]
  MIC: 6.25 µg/mL (≈ 32.5 µM)
[5]
  MIC: 12.5 µg/mL (≈ 65 µM)
[6]
  MIC: 6.25 µg/mL (≈ 32.5 µM)
[7]
  MIC: 3.13 µg/mL (≈ 16.3 µM)
Salmonella typhi 901
  MIC: 1.56 µg/mL (≈ 8.12 µM)
[8]
  MIC: < 0.2 µg/mL
[9]
  MIC: 12.5 µg/mL (≈ 65 µM)
[10]
  MIC: 100 µg/mL (≈ 520 µM)
[11]
  MIC: 50 µg/mL (≈ 260 µM)
[12]
  MIC: 25 µg/mL (≈ 130 µM)
[13]
  MIC: 200 µg/mL (≈ 1040 µM)
[14]
  MIC: 100 µg/mL (≈ 520 µM)
[15]
  MIC: 12.5 µg/mL (≈ 65 µM)
[16]
  MIC: 50 µg/mL (≈ 260 µM)
[17]
  MIC: 100 µg/mL (≈ 520 µM)
[18]
  MIC: 3.13 µg/mL (≈ 16.3 µM)
[19]
  MIC: 6.25 µg/mL (≈ 32.5 µM)
[20]
  MIC: 100 µg/mL (≈ 520 µM)
[21]
  MIC: 6.25 µg/mL (≈ 32.5 µM)
Enterobacter cloacae 963
  MIC: 6.25 µg/mL (≈ 32.5 µM)
[22]
  MIC: 6.25 µg/mL (≈ 32.5 µM)
[23]
  MIC: 12.5 µg/mL (≈ 65 µM)
Proteus vulgaris OX-19
  MIC: 3.13 µg/mL (≈ 16.3 µM)
[24]
  MIC: > 200 µg/mL
[25]
  MIC: 50 µg/mL (≈ 260 µM)
[26]
  MIC: 6.25 µg/mL (≈ 32.5 µM)

## [C-]#[N+]C12CC3(/C=C/C(=O)NC4CCCCC4)OC3C1O2 (stereo not drawn) [compound 20]
[1]
  MIC: < 0.05 µg/mL
Proteus vulgaris HX-19
  MIC: 0.1 µg/mL (≈ 0.365 µM)
[2]
  MIC: > 200 µg/mL
[3]
  MIC: 6.25 µg/mL (≈ 22.8 µM)
[4]
  MIC: 6.25 µg/mL (≈ 22.8 µM)
[5]
  MIC: 1.56 µg/mL (≈ 5.69 µM)
[6]
  MIC: 1.56 µg/mL (≈ 5.69 µM)
[7]
  MIC: 12.5 µg/mL (≈ 45.6 µM)
Salmonella typhi 901
  MIC: 6.25 µg/mL (≈ 22.8 µM)
[8]
  MIC: < 0.2 µg/mL
[9]
  MIC: 0.39 µg/mL (≈ 1.42 µM)
[10]
  MIC: > 200 µg/mL
[11]
  MIC: > 200 µg/mL
[12]
  MIC: 12.5 µg/mL (≈ 45.6 µM)
[13]
  MIC: > 200 µg/mL
[14]
  MIC: 12.5 µg/mL (≈ 45.6 µM)
[15]
  MIC: 100 µg/mL (≈ 365 µM)
[16]
  MIC: > 200 µg/mL
[17]
  MIC: > 200 µg/mL
[18]
  MIC: 0.78 µg/mL (≈ 2.84 µM)
[19]
  MIC: 1.56 µg/mL (≈ 5.69 µM)
[20]
  MIC: 6.25 µg/mL (≈ 22.8 µM)
[21]
  MIC: > 200 µg/mL
Enterobacter cloacae 963
  MIC: > 200 µg/mL
[22]
  MIC: 6.25 µg/mL (≈ 22.8 µM)
[23]
  MIC: 3.13 µg/mL (≈ 11.4 µM)
Proteus vulgaris OX-19
  MIC: 0.78 µg/mL (≈ 2.84 µM)
[24]
  MIC: > 200 µg/mL
[25]
  MIC: 50 µg/mL (≈ 182 µM)
[26]
  MIC: > 200 µg/mL
